From PMC7822065, “Discovery of indole-3-butyric acid derivatives as potent histone deacetylase inhibitors” (Journal of Enzyme Inhibition and Medicinal Chemistry, 2021)
Where two headings read alike, the source gives them in different places.

Columns and labels:
HepG2 cells [1] = experiment: Annexin V/PI cell apoptosis assay (flow cytometry); conditions: annexin V-FITC/PI
Experimental: After 10 min of incubation, 1 µl PI was added to each sample and mixed gently. After incubation at room temperature for another 20 min in the dark, cells were subjected to flow cytometer (CytoFLEX, Beckman Coulter, Brea, CA).

A2780 cells = experiment: MTT antiproliferative assay, A2780; assay type: cell-based; conditions: for IC50: Homo sapiens
Experimental: (§1) The stock solutions of tested compounds were diluted with culture medium. Briefly, the cells were seeded into each well of 96-well plate, which were incubated at 37 °C, 5% CO2 until confluency 90–95%. Then, the cells were treated with compound sample at various concentrations for 48 h. Afterward, […] working solution (5 mg/ml) was added to each well and incubated for another 4 h. After incubation, the […] formed from MTT was extracted by adding DMSO (200 µl). The optical density (OD) at 490 nm and 630 nm were measured by Universal Microplate Spectrophotometer. […] The IC50 values were calculated with Origin 7.5 software (Originlab Corporation, Northampton, MA), and standard deviations of the IC50 values were obtained through at least 3 independent experiments.
A series of tumour cell lines including the lung cancer A549, Calu-3, SPC-A-1, H322, H1299, breast cancer MDA-MB-231, MCF-7, MDA-MB-468, colon carcinoma LoVo, Colo205, ovarian cancer A2780, SKOV3, gastric cancer MKN45, pancreatic cancer PNAC-1, leukemic K562, and multiple myeloma OPM2 cells were cultured for the antiproliferative assay of active compound I13. In the present study, molecule I13 could inhibit the growth of both solid and haematologic tumour cell lines (Table 4). […]. The antiproliferative activity of molecule I13 was considered to be restricted by the poor enzyme inhibitory selectivity. Enhancement of selectivity could be a useful strategy to improve the anticancer activity of this group of HDACIs.

HepG2 xenograft = conditions: for mean weight of tumours: n = 7
HDAC1 = HDAC1 (Homo sapiens, UniProt Q13547); experiment: In vitro HDACs inhibitory assay, recombinant HDAC1
Experimental: (§2) All of the HDAC enzymes were purchased from BPS Bioscience (San Diego, CA). Briefly, 20 μl of HeLa nucleus extract or recombinant HDAC enzyme solution was mixed with various concentrations of tested compound (20 μl). The mixture was incubated at 30 °C for 1 h (for the time-dependent assay, the mixture was incubated for 15, 30, 60, and 90 min, respectively), then 10 μl of fluorogenic substrate (Boc-Lys (acetyl)-AMC (3 mM) for HDAC1, 2, 3, and 6, Boc-Lys (trifluoroacetyl)-AMC (3 mM) for HDAC 4, 7, 8, and 9) was added. After incubation at 30 °C for 2 h, the catalytic reaction was stopped by addition of 10 μl of developer containing trypsin and trichostatin A (TSA). After 30 min, fluorescence intensity was measured using a microplate reader at excitation and emission wavelengths of 360 and 460 nm, respectively. The inhibition ratios were calculated from the fluorescence intensity readings of tested wells relative to those of control wells, and the IC50 curves and values were determined by GraphPad Prism 6.0 software (La Jolla, CA).

MDA-MB-468 cells = experiment: MTT antiproliferative assay, MDA-MB-468; assay type: cell-based; conditions: Homo sapiens, breast carcinoma
Experimental: as §1, with “Briefly, the cells were seeded into each well of 96-well plate, which were incubated at 37 °C, 5% CO2 until confluency 90–95%.” left out

LoVo cells = experiment: MTT antiproliferative assay, LoVo; assay type: cell-based; conditions: Homo sapiens, colon carcinoma
Experimental: as §1, with “Briefly, the cells were seeded into each well of 96-well plate, which were incubated at 37 °C, 5% CO2 until confluency 90–95%.” left out

SKOV3 cells = experiment: MTT antiproliferative assay, SKOV3; assay type: cell-based; conditions: Homo sapiens, SK-OV-3, ovarian cancer
Experimental: as §1, with “Briefly, the cells were seeded into each well of 96-well plate, which were incubated at 37 °C, 5% CO2 until confluency 90–95%.” left out

HDAC4 = HDAC4 (Homo sapiens, UniProt P56524); experiment: In vitro HDACs inhibitory assay, recombinant HDAC4
Experimental: as §2

HDAC7 = HDAC7 (Homo sapiens, UniProt Q8WUI4); experiment: In vitro HDACs inhibitory assay, recombinant HDAC7
Experimental: as §2

HepG2 cells [2] = experiment: MTT antiproliferative assay, HepG2
Experimental: (§3) The stock solutions of tested compounds were diluted with culture medium. […] Then, the cells were treated with compound sample at various concentrations for 48 h. Afterward, 20 MTT working solution (5 mg/ml) was added to each well and incubated for another 4 h. After incubation, the medium formed from MTT was extracted by adding DMSO (200 µl). The optical density (OD) at 490 nm and 630 nm were measured by Universal Microplate Spectrophotometer. […] The IC50 values were calculated with Origin 7.5 software (Originlab Corporation, Northampton, MA), and standard deviations of the IC50 values were obtained through at least 3 independent experiments.

K562 cells = experiment: MTT antiproliferative assay, K562; assay type: cell-based; conditions: Homo sapiens, leukemia
Experimental: as §1, with “Briefly, the cells were seeded into each well of 96-well plate, which were incubated at 37 °C, 5% CO2 until confluency 90–95%.” left out

PNAC-1 cells = experiment: MTT antiproliferative assay, PNAC-1; assay type: cell-based
Experimental: as §1, with “Briefly, the cells were seeded into each well of 96-well plate, which were incubated at 37 °C, 5% CO2 until confluency 90–95%.” left out

MKN45 cells = experiment: MTT antiproliferative assay, MKN45; assay type: cell-based; conditions: Homo sapiens, MKN-45, gastric cancer
Experimental: as §1, with “Briefly, the cells were seeded into each well of 96-well plate, which were incubated at 37 °C, 5% CO2 until confluency 90–95%.” left out

HDAC9 = HDAC9 (Homo sapiens, UniProt Q9UKV0); experiment: In vitro HDACs inhibitory assay, recombinant HDAC9
Experimental: as §2

Colo205 cells = experiment: MTT antiproliferative assay, Colo205; assay type: cell-based; conditions: Homo sapiens, COLO 205, colon carcinoma
Experimental: as §1, with “Briefly, the cells were seeded into each well of 96-well plate, which were incubated at 37 °C, 5% CO2 until confluency 90–95%.” left out

H1299 cells = experiment: MTT antiproliferative assay, H1299; assay type: cell-based; conditions: Homo sapiens, NCI-H1299, lung cancer
Experimental: as §1, with “Briefly, the cells were seeded into each well of 96-well plate, which were incubated at 37 °C, 5% CO2 until confluency 90–95%.” left out

Calu-3 cells = experiment: MTT antiproliferative assay, Calu-3; assay type: cell-based; conditions: Homo sapiens, lung cancer
Experimental: as §1, with “Briefly, the cells were seeded into each well of 96-well plate, which were incubated at 37 °C, 5% CO2 until confluency 90–95%.” left out

H322 cells = experiment: MTT antiproliferative assay, H322; assay type: cell-based; conditions: NCI-H322, lung cancer
Experimental: as §1, with “Briefly, the cells were seeded into each well of 96-well plate, which were incubated at 37 °C, 5% CO2 until confluency 90–95%.” left out

HDAC3 = HDAC3 (Homo sapiens, UniProt O15379); experiment: In vitro HDACs inhibitory assay, recombinant HDAC3
Experimental: as §2

HDAC2 = HDAC2 (Homo sapiens, UniProt Q92769); experiment: In vitro HDACs inhibitory assay, recombinant HDAC2
Experimental: as §2

OPM2 cells = experiment: MTT antiproliferative assay, OPM2; assay type: cell-based; conditions: Homo sapiens, OPM-2, multiple myeloma
Experimental: as §1, with “Briefly, the cells were seeded into each well of 96-well plate, which were incubated at 37 °C, 5% CO2 until confluency 90–95%.” left out

MDA-MB-231 cells = experiment: MTT antiproliferative assay, MDA-MB-231; assay type: cell-based; conditions: Homo sapiens, breast carcinoma
Experimental: as §1, with “Briefly, the cells were seeded into each well of 96-well plate, which were incubated at 37 °C, 5% CO2 until confluency 90–95%.” left out

[3] = system: HDACs (HeLa nucleus extract containing a mixture of HDAC isoforms); experiment: HDAC inhibitory assay with HeLa nucleus extract; conditions: at the concentration of 1 µM
U266 cells = experiment: MTT antiproliferative assay, U266
Experimental: as §3
To evaluate the antiproliferative activity of hydroxamic acid containing molecules, MTT assays were performed using U937, U266, and HepG2 cell lines.

MCF-7 cells = experiment: MTT antiproliferative assay, MCF-7; assay type: cell-based; conditions: Homo sapiens, MCF7, breast carcinoma
Experimental: as §1, with “Briefly, the cells were seeded into each well of 96-well plate, which were incubated at 37 °C, 5% CO2 until confluency 90–95%.” left out

Water solubility = assay type: physicochemical
A549 cells = experiment: MTT antiproliferative assay, A549; assay type: cell-based; conditions: Homo sapiens, lung cancer
Experimental: as §1, with “Briefly, the cells were seeded into each well of 96-well plate, which were incubated at 37 °C, 5% CO2 until confluency 90–95%.” left out

HDAC8 = HDAC8 (Homo sapiens, UniProt Q9BY41); experiment: In vitro HDACs inhibitory assay, recombinant HDAC8
Experimental: as §2

SPC-A-1 cells = experiment: MTT antiproliferative assay, SPC-A-1; assay type: cell-based; conditions: SPCA1, lung cancer
Experimental: as §1, with “Briefly, the cells were seeded into each well of 96-well plate, which were incubated at 37 °C, 5% CO2 until confluency 90–95%.” left out

HDAC6 = HDAC6 (Homo sapiens, UniProt Q9UBN7); experiment: In vitro HDACs inhibitory assay, recombinant HDAC6
Experimental: as §2

U937 cells = experiment: MTT antiproliferative assay, U937; conditions: Homo sapiens, U-937, 48 h, read-out: U937 IC50
Experimental: as §3

[4] = 50 mg/kg/d intragastric, 16 days, HepG2 xenograft

Chain of HDAC1 (Q13547 whole entry): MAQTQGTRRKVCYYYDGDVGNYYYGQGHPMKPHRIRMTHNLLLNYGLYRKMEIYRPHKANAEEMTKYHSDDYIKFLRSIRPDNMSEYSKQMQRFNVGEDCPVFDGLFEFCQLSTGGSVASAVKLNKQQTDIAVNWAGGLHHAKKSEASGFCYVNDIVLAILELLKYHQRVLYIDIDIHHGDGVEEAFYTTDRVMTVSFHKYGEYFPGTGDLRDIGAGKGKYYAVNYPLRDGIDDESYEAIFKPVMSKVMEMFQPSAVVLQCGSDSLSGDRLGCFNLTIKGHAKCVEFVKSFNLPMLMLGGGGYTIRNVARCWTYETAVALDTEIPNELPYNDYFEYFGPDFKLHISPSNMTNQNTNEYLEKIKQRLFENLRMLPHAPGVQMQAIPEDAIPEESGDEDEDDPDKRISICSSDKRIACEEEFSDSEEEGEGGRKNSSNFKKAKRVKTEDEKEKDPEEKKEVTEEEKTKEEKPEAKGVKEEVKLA
Chain of HDAC6 (Q9UBN7 whole entry): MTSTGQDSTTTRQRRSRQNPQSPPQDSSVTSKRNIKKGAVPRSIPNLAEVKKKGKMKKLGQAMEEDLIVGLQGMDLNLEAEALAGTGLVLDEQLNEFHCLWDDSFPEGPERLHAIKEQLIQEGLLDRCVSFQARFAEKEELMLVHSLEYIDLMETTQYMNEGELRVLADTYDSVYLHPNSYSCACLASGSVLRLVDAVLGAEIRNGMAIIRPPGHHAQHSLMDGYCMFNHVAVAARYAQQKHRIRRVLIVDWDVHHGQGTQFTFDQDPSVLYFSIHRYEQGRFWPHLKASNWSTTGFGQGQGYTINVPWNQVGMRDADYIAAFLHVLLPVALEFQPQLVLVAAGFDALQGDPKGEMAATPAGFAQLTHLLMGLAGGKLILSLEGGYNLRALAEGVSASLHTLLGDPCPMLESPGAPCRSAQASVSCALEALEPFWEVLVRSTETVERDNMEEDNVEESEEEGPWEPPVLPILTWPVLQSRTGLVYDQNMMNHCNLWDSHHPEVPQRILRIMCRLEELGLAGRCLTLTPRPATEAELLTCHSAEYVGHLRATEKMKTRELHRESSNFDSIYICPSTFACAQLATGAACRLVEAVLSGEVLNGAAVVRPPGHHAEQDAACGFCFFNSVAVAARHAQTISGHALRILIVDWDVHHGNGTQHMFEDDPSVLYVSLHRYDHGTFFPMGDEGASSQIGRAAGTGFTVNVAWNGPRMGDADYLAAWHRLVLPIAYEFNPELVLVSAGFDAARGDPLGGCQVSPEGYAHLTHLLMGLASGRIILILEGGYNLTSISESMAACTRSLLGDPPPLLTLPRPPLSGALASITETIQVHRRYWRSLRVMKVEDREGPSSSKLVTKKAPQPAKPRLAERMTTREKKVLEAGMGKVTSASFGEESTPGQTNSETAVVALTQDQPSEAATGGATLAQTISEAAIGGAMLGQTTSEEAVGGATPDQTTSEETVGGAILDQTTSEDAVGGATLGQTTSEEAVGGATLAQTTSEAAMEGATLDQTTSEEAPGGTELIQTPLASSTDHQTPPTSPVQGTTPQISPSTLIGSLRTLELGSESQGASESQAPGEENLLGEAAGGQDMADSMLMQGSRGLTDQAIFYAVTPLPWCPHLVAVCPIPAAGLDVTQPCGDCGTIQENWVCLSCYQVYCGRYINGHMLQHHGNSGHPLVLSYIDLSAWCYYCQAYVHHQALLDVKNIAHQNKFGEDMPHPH
Chain of HDAC8 (Q9BY41 whole entry): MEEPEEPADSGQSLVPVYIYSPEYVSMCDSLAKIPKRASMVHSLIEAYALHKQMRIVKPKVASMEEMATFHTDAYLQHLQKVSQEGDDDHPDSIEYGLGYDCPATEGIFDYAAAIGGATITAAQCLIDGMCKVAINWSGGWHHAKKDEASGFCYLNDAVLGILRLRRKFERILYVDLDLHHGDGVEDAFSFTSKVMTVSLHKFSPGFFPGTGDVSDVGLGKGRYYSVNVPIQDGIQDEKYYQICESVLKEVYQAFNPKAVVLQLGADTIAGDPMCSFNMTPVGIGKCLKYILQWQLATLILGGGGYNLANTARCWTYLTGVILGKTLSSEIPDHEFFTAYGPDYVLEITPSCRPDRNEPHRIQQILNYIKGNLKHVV
Chain of HDAC3 (O15379 whole entry): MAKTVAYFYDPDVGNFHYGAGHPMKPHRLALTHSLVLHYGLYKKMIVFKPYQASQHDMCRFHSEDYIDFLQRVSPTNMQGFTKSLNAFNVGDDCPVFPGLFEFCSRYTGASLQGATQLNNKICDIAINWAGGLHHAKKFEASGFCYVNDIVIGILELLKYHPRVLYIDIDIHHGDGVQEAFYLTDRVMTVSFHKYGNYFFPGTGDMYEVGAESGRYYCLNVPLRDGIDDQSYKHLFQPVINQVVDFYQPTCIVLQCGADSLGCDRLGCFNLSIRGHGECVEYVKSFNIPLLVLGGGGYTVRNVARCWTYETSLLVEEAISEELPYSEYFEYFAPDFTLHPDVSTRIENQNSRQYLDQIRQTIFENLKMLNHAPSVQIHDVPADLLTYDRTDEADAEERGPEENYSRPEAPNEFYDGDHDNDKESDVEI
Chain of HDAC3 (Q9Y618 395-489 partner limits assumed): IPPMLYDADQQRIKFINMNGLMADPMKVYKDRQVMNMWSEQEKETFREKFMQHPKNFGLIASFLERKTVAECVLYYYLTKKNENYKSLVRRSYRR
Chain of HDAC9 (Q9UKV0 whole entry): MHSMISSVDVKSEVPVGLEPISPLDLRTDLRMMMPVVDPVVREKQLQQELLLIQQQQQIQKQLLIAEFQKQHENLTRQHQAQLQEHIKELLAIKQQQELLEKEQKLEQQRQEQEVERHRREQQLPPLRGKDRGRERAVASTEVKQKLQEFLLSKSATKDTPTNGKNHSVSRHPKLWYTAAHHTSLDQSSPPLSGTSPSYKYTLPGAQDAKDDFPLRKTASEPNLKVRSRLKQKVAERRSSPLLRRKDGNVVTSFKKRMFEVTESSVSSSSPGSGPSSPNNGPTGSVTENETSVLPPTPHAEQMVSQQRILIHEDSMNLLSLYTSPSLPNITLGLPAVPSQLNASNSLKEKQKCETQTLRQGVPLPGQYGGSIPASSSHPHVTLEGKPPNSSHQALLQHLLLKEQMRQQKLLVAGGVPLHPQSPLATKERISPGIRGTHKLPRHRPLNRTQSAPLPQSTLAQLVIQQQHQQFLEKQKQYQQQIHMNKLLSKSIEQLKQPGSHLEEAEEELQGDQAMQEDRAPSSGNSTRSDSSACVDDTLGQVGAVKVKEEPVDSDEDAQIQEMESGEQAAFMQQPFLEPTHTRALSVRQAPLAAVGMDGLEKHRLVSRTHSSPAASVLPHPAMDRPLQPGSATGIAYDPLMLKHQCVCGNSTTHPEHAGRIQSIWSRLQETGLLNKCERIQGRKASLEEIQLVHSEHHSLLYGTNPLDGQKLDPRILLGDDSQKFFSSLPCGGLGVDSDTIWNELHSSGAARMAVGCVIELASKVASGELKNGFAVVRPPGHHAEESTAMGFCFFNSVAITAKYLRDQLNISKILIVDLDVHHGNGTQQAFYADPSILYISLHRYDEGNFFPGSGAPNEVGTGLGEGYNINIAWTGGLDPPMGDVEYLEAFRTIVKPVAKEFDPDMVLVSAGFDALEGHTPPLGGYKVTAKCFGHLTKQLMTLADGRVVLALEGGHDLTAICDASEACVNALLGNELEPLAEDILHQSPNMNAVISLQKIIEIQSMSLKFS
Chain of HDAC2 (Q92769 whole entry): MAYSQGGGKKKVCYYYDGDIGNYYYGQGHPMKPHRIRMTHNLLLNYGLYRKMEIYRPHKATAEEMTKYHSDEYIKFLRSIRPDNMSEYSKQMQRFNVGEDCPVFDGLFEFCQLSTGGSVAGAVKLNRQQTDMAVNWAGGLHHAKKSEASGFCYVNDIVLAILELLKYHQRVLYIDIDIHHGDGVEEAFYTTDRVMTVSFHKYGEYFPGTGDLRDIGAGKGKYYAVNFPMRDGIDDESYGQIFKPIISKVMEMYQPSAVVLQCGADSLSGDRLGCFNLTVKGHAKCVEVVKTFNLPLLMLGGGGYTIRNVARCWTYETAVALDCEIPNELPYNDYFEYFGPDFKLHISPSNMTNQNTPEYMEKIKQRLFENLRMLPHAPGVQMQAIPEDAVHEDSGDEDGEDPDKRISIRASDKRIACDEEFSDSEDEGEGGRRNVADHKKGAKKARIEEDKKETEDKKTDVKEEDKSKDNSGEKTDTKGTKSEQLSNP
Chain of HDAC7 (Q8WUI4 whole entry): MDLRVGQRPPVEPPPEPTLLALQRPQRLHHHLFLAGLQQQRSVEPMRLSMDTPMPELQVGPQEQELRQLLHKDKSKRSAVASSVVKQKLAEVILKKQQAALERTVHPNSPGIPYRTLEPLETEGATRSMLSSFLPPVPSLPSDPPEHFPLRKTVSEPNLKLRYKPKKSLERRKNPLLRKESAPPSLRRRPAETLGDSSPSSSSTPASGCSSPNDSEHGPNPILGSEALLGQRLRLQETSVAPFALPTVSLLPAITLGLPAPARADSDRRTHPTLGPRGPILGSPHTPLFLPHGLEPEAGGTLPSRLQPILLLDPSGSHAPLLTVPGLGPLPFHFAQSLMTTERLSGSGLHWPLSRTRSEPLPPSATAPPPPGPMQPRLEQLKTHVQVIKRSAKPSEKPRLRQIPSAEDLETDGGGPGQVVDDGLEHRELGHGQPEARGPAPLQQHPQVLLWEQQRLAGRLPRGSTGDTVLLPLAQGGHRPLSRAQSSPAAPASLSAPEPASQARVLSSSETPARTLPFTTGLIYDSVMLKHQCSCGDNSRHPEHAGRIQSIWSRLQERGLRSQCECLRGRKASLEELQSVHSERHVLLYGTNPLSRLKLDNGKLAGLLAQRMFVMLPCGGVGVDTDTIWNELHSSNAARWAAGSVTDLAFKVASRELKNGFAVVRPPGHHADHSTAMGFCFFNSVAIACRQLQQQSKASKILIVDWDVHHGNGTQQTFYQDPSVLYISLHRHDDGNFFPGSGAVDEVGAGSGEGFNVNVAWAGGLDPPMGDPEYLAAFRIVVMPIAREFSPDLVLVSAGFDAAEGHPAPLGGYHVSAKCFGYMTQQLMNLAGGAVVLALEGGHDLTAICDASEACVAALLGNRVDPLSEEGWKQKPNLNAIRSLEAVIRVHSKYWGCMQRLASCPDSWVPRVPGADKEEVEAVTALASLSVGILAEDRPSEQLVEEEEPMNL

## O=C(CCCCCCC(=O)Nc1ccccc1)NO [SAHA, Suberoylanilide hydroxamic acid, reference compound]
HepG2 cells [1]; HepG2, 0.2 μM
  flow cytometry quadrant Q1-LL: 88.86%
  flow cytometry quadrant Q1-LR: 5.30%
  flow cytometry quadrant Q1-UL: 0.05%
  flow cytometry quadrant Q1-UR: 5.79%
HepG2 cells [1]; HepG2, 0.8 μM
  flow cytometry quadrant Q1-LL: 86.03%
  flow cytometry quadrant Q1-LR: 7.73%
  flow cytometry quadrant Q1-UL: 0.01%
  flow cytometry quadrant Q1-UR: 6.23%
A2780 cells; A2780, read-out: A2780 IC50
  IC50: 27300 nM
HepG2 xenograft; 100 mg/kg/d intragastric, 16 days, HepG2 xenograft
  mean weight of tumours: 0.322 g

## Cn1cc(CCCC(=O)Nc2ccc(C(=O)NO)cc2)c2ccccc21 [Compound I13, 4-(4-(1-Methyl-1H-indol-3-yl)butanamido)-N-hydroxybenzamide]
HDAC1
  IC50: 13.9 nM
HepG2 cells [1]; HepG2, 0.2 µM, 24 h
  ratio of apoptotic cells: 11.56%
HepG2 cells [1]; HepG2, 0.2 μM
  flow cytometry quadrant Q1-LL: 88.42%
  flow cytometry quadrant Q1-LR: 6.12%
  flow cytometry quadrant Q1-UL: 0.02%
  flow cytometry quadrant Q1-UR: 5.44%
HepG2 cells [1]; HepG2, 0.8 μM
  flow cytometry quadrant Q1-LL: 67.38%
  flow cytometry quadrant Q1-LR: 21.27%
  flow cytometry quadrant Q1-UL: 0.07%
  flow cytometry quadrant Q1-UR: 11.28%
MDA-MB-468 cells
  IC50: 1340 nM
LoVo cells
  IC50: 2190 nM
SKOV3 cells
  IC50: 1440 nM
HDAC4
  IC50: > 5000 nM
HDAC7
  IC50: 326 nM
HepG2 cells [2]; Homo sapiens, HepG2, 48 h, read-out: HepG2 IC50
  IC50: 1850 ± 310 nM
HepG2 cells [2]; ratio of IC50 values
  fold more active than SAHA, HepG2 cells: 4.7 fold
K562 cells
  IC50: 2870 nM
PNAC-1 cells; pancreatic cancer, MTT
  IC50: 1170 nM
PNAC-1 cells; ratio of IC50 values
  fold more active than SAHA, PNAC-1 cells: 5.6 fold
MKN45 cells
  IC50: 18200 nM
HDAC9
  IC50: > 5000 nM
Colo205 cells
  IC50: 2420 nM
H1299 cells
  IC50: 7670 nM
Calu-3 cells
  IC50: 1260 nM
H322 cells
  IC50: 14900 nM
HDAC3
  IC50: 12.1 nM
HDAC2
  IC50: 49.9 nM
OPM2 cells
  IC50: 230 nM
MDA-MB-231 cells
  IC50: 780 nM
[3]
  HDACs, percentage inhibition rate (PIR): 82.19 ± 1.60%
U266 cells; Homo sapiens, U-266, 48 h, read-out: U266 IC50
  IC50: 160 ± 40 nM
U266 cells; ratio of IC50 values
  fold more active than SAHA, U266 cells: 5.5 fold
MCF-7 cells
  IC50: 6340 nM
A2780 cells; A2780, ovarian cancer, MTT, read-out: A2780 IC50
  IC50: 4600 nM
A2780 cells; ratio of IC50 values
  fold more active than SAHA, A2780 cells: 5.9 fold
HepG2 xenograft; 50 mg/kg/d intragastric, 16 days
  toxic signs in liver and spleen: no obvious toxic signs in liver and spleen were detected
HepG2 xenograft; [4]
  tumour inhibitory ratio: 33.1%
  mean weight of tumours: 0.303 g
HepG2 xenograft; mouse, in vivo
  mice body weight loss: No evidence of mice body weight (measured every two days) loss
Water solubility
  water solubility: good water solubility
A549 cells
  IC50: 3150 nM
HDAC8
  IC50: 284 nM
SPC-A-1 cells
  IC50: 810 nM
HDAC6
  IC50: 7.71 nM
U937 cells
  IC50: 930 ± 80 nM
